In the supplement of paper PMC10307832:

Columns and labels:
Experiment in all cases: relative viability (nuclei count vs DMSO), 5 days (fraction); higher = more cells survive
Nelarabine + Olaparib = compound: COc1nc(N)nc2c1ncn2[C@@H]1O[C@H](CO)[C@@H](O)[C@@H]1O [Nelarabine] + O=C(c1cc(Cc2n[nH]c(=O)c3ccccc23)ccc1F)N1CCN(C(=O)C2CC2)CC1 [Olaparib] (partner 8 µM)
How it was run: (§1)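 For relative viability, nuclei counts in treated wells were divided by those in vehicle wells. Lung cancer cell lines had been pin-tool dosed in 1536-well plates the day after seeding and cultured for 5 days, then fixed and stained in one step (final 0.05% Triton X-100, 1% formaldehyde, 1 ug/ml Hoechst) and imaged at 4×. Doses were one drug alone or a fixed anchor-drug dose plus five library-drug doses (not always all listed) in √10 steps, and values are duplicate-plate medians.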

Nelarabine + Decitabine = compound: COc1nc(N)nc2c1ncn2[C@@H]1O[C@H](CO)[C@@H](O)[C@@H]1O [Nelarabine] + Nc1ncn([C@H]2C[C@H](O)[C@@H](CO)O2)c(=O)n1 [Decitabine] (partner 2 µM)
How it was run: as §1

Nelarabine + Crizotinib = compound: COc1nc(N)nc2c1ncn2[C@@H]1O[C@H](CO)[C@@H](O)[C@@H]1O [Nelarabine] + C[C@@H](Oc1cc(-c2cnn(C3CCNCC3)c2)cnc1N)c1c(Cl)ccc(F)c1Cl [Crizotinib] (partner 1 µM)
How it was run: as §1

Adavosertib + Lapatinib = compound: C=CCn1c(=O)c2cnc(Nc3ccc(N4CCN(C)CC4)cc3)nc2n1-c1cccc(C(C)(C)O)n1 [Adavosertib] + CS(=O)(=O)CCNCc1ccc(-c2ccc3ncnc(Nc4ccc(OCc5cccc(F)c5)c(Cl)c4)c3c2)o1 [Lapatinib] (partner 2 µM)
How it was run: as §1

Cell Line | relative viability (Nelarabine + Olaparib; first compound 0.01 µM) | relative viability (Nelarabine + Olaparib; first compound 0.03162 µM) | relative viability (Nelarabine + Olaparib; first compound 0.1 µM) | relative viability (Nelarabine + Olaparib; first compound 0.3162 µM) | relative viability (Nelarabine + Olaparib; first compound 1 µM) | relative viability (Nelarabine + Decitabine; first compound 0.01 µM) | relative viability (Nelarabine + Decitabine; first compound 0.03162 µM) | relative viability (Nelarabine + Decitabine; first compound 0.1 µM) | relative viability (Nelarabine + Decitabine; first compound 0.3162 µM) | relative viability (Nelarabine + Decitabine; first compound 1 µM) | relative viability (Nelarabine + Crizotinib; first compound 0.01 µM) | relative viability (Nelarabine + Crizotinib; first compound 0.03162 µM) | relative viability (Nelarabine + Crizotinib; first compound 0.1 µM) | relative viability (Nelarabine + Crizotinib; first compound 0.3162 µM) | relative viability (Nelarabine + Crizotinib; first compound 1 µM) | relative viability (Adavosertib + Lapatinib; first compound 0.01 µM) | relative viability (Adavosertib + Lapatinib; first compound 0.03162 µM) | relative viability (Adavosertib + Lapatinib; first compound 0.1 µM) | relative viability (Adavosertib + Lapatinib; first compound 0.3162 µM)
201T | 0.876 | 0.835 | 0.845 | 0.858 | 0.835 | 0.869 | 0.871 | 0.837 | 0.896 | 0.829 | 1.04 | 0.968 | 0.84 | 1.06 | 1.02 | 1.02 | 1.01 | 1.02 | 1.09
A549 | 0.379 | 0.363 | 0.401 | 0.452 | 0.377 | 0.293 | 0.282 | 0.271 | 0.287 | 0.23 | 0.735 | 0.666 | 0.742 | 0.803 | 0.671 | 0.908 | 1.01 | 1.06 | 0.743
A-427 | 0.796 | 0.818 | 0.812 | 0.803 | 0.704 | 0.551 | 0.576 | 0.476 | 0.528 | 0.535 | 1.02 | 0.636 | 0.872 | 0.957 | 0.893 | 1.01 | 1.02 | 1.07 | 0.999
ABC-1 | 0.774 | 0.706 | 0.777 | 0.903 | 0.835 | 1.25 | 1.21 | 1.09 | 1.05 | 0.972 | 1.07 | 1.09 | 0.994 | 1.14 | 0.976 | 1.12 | 1.09 | 1.24 | 1.26
BEN | 1.3 | 1.08 | 1.11 | 1.04 | 1.25 | 0.729 | 0.762 | 0.712 | 0.79 | 0.744 | 1.37 | 0.869 | 0.896 | 0.88 | 0.929 | 0.751 | 0.728 | 0.801 | 0.948
CAL-12T | 0.662 | 0.87 | 0.748 | 0.676 | 0.73 |  |  |  |  |  | 0.517 | 0.514 | 0.61 | 0.806 | 0.549 |  | 0.678 | 0.598 | 0.464
COR-L23 | 0.432 | 0.31 | 0.301 | 0.373 | 0.363 | 0.532 | 0.381 | 0.408 | 0.482 | 0.446 | 0.692 | 0.706 | 0.574 | 0.617 | 0.628 | 1.06 | 1.09 | 0.769 | 0.415
COR-L 105 | 0.554 | 0.666 | 0.592 | 0.697 | 0.541 | 0.691 | 0.723 | 0.644 | 0.66 | 0.719 | 0.998 | 0.752 | 0.678 | 0.894 | 0.844 | 0.361 | 0.428 | 0.373 | 0.349
Calu-6 | 0.67 | 0.65 | 0.698 | 0.575 | 0.594 |  |  |  |  |  | 0.848 | 0.613 | 0.879 | 0.825 | 0.826 | 1.07 | 1 | 1.04 | 0.356
ChaGo-K-1 | 0.324 | 0.404 | 0.452 | 0.433 | 0.428 | 0.559 | 0.532 | 0.52 | 0.539 | 0.539 | 1.11 | 1.01 | 1.32 | 1.23 | 1.17 |  |  |  | 
EBC-1 | 0.89 | 0.911 | 0.707 | 0.676 | 0.737 |  |  |  |  |  | 0.157 | 0.178 | 0.182 | 0.235 | 0.194 | 0.198 | 0.206 | 0.25 | 0.21
EKVX | 1.11 | 0.852 | 0.817 | 0.775 | 0.866 | 0.373 | 0.266 | 0.356 | 0.292 | 0.571 | 1.16 | 0.83 | 0.894 | 1.41 | 0.979 | 0.216 | 0.233 | 0.201 | 0.225
EMC-BAC-2 | 0.538 | 0.432 | 0.486 | 0.529 | 0.553 | 0.885 | 1.11 | 0.912 | 0.864 | 0.995 | 0.734 | 0.624 | 0.782 | 0.843 | 0.683 | 0.882 | 0.869 | 0.927 | 0.978
EPLC-272H | 1.13 | 0.881 | 0.646 | 0.842 | 0.769 | 0.435 | 0.316 | 0.288 | 0.326 | 0.377 | 1.01 | 0.928 | 1 | 0.946 | 0.861 | 0.745 | 0.958 | 0.844 | 0.739
H3255 | 0.624 | 0.553 | 0.54 | 0.583 | 0.558 | 0.712 | 0.563 | 0.574 | 0.64 | 0.632 | 1.04 | 0.821 | 0.906 | 0.881 | 0.913 | 0.25 | 0.251 | 0.219 | 0.203
HARA | 0.843 | 0.569 | 0.746 | 0.834 | 0.636 | 0.436 | 0.577 | 0.442 | 0.668 | 0.539 | 1.21 | 1.09 | 0.909 | 1.24 | 1.12 | 0.648 | 0.858 | 0.648 | 0.729
HCC-15 | 0.813 | 0.691 | 0.931 | 0.667 | 0.846 | 0.739 | 0.58 | 0.656 | 0.63 | 0.731 | 1.01 | 0.782 | 0.86 | 0.97 | 0.887 | 0.902 | 0.87 | 0.934 | 0.955
HCC-44 | 1.07 | 0.972 | 0.948 | 0.975 | 0.986 | 0.942 | 0.924 | 0.863 | 1.01 | 0.928 | 0.989 | 0.782 | 0.783 | 0.819 | 0.739 | 0.976 | 1.04 | 1.08 | 1.14
